# System: 171881-019-R-J1-PDC tumor spheroids, viability
# Assay: Anticancer human tumor 171881-019-R-J1-PDC patient-derived invasive breast carcinoma cell line growth inhibition [GQUAD]
# Conditions: spheroids with HUVEC and MSC; for IC50: curve of first compound; for viability, T/C: stronger effect = lower value
# Method in brief: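 Multi-cell-type spheroids of tumor cells with HUVEC and mesenchymal stem cells, treated with drug combinations. Concentrations descend in half-log steps from near clinical Cmax, or from 10 microM where Cmax is unknown; viability read-out.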
# [1] = second compound 0.0316 µM, first compound 0.0316 µM
# [2] = second compound 0.0316 µM, first compound 0.316 µM
# [3] = second compound 0.1 µM, first compound 0.0316 µM
# [4] = second compound 0.1 µM, first compound 0.316 µM
# [5] = second compound 0.316 µM, first compound 0.0316 µM
# [6] = second compound 0.316 µM, first compound 0.316 µM
# [7] = second compound 1 µM, first compound 0.0316 µM
# [8] = second compound 1 µM, first compound 0.316 µM
# [9] = second compound 3.16 µM, first compound 0.0316 µM
# [10] = second compound 3.16 µM, first compound 0.316 µM
# [11] = second compound 10 µM, first compound 0.0316 µM
# [12] = second compound 10 µM, first compound 0.316 µM
# 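Further: spheroids exposed to compounds for 7 days.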
# 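Wherever viability, T/C is given: 100% = DMSO vehicle control viability.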
compound,measurement,setting,value
Cn1ncnc1[C@H]1c2n[nH]c(=O)c3cc(F)cc(c23)N[C@@H]1c1ccc(F)cc1 + Cc1cnc(CNC(=O)c2c(=O)c3ccc(N4CCCN(C)CC4)nc3n3c2sc2ccccc23)cn1,IC50,second compound 0.0316 µM,> 316 nM
same,IC50,second compound 0.1 µM,> 316 nM
same,IC50,second compound 0.316 µM,> 316 nM
same,IC50,second compound 1 µM,> 316 nM
same,IC50,second compound 3.16 µM,> 316 nM
same,IC50,second compound 10 µM,> 316 nM
same,"viability, T/C","second compound 0.0316 µM, first compound 0.000999 µM",94.5%
same,"viability, T/C","second compound 0.0316 µM, first compound 0.00316 µM",86.1%
same,"viability, T/C","second compound 0.0316 µM, first compound 0.00999 µM",95.2%
same,"viability, T/C",[1],87.2%
same,"viability, T/C","second compound 0.0316 µM, first compound 0.0999 µM",79.1%
same,"viability, T/C",[2],73.6%
same,"viability, T/C","second compound 0.1 µM, first compound 0.000999 µM",82.2%
same,"viability, T/C","second compound 0.1 µM, first compound 0.00316 µM",83.2%
same,"viability, T/C","second compound 0.1 µM, first compound 0.00999 µM",82.4%
same,"viability, T/C",[3],76%
same,"viability, T/C","second compound 0.1 µM, first compound 0.0999 µM",63.3%
same,"viability, T/C",[4],59.9%
same,"viability, T/C","second compound 0.316 µM, first compound 0.000999 µM",73.7%
same,"viability, T/C","second compound 0.316 µM, first compound 0.00316 µM",74.3%
same,"viability, T/C","second compound 0.316 µM, first compound 0.00999 µM",67.5%
same,"viability, T/C",[5],63.5%
same,"viability, T/C","second compound 0.316 µM, first compound 0.0999 µM",64.4%
same,"viability, T/C",[6],65.1%
same,"viability, T/C","second compound 1 µM, first compound 0.000999 µM",68%
same,"viability, T/C","second compound 1 µM, first compound 0.00316 µM",59.8%
same,"viability, T/C","second compound 1 µM, first compound 0.00999 µM",70.4%
same,"viability, T/C",[7],63.5%
same,"viability, T/C","second compound 1 µM, first compound 0.0999 µM",63.5%
same,"viability, T/C",[8],61.9%
same,"viability, T/C","second compound 3.16 µM, first compound 0.000999 µM",61.3%
same,"viability, T/C","second compound 3.16 µM, first compound 0.00316 µM",60.1%
same,"viability, T/C","second compound 3.16 µM, first compound 0.00999 µM",61.2%
same,"viability, T/C",[9],64.7%
same,"viability, T/C","second compound 3.16 µM, first compound 0.0999 µM",65.1%
same,"viability, T/C",[10],59.1%
same,"viability, T/C","second compound 10 µM, first compound 0.000999 µM",58.6%
same,"viability, T/C","second compound 10 µM, first compound 0.00316 µM",63%
same,"viability, T/C","second compound 10 µM, first compound 0.00999 µM",60.4%
same,"viability, T/C",[11],59.9%
same,"viability, T/C","second compound 10 µM, first compound 0.0999 µM",65.9%
same,"viability, T/C",[12],60.4%
Nc1ccn(C2OC(CO)C(O)C2(F)F)c(=O)n1 (centres undefined) + Cc1cnc(CNC(=O)c2c(=O)c3ccc(N4CCCN(C)CC4)nc3n3c2sc2ccccc23)cn1,IC50,second compound 0.0316 µM,< 31.6 nM
same,IC50,second compound 0.1 µM,< 31.6 nM
same,IC50,second compound 0.316 µM,< 31.6 nM
same,IC50,second compound 1 µM,< 31.6 nM
same,IC50,second compound 3.16 µM,< 31.6 nM
same,IC50,second compound 10 µM,< 31.6 nM
same,"viability, T/C",[1],27.8%
same,"viability, T/C","second compound 0.0316 µM, first compound 0.1 µM",29.9%
same,"viability, T/C",[2],39.4%
same,"viability, T/C","second compound 0.0316 µM, first compound 1 µM",38%
same,"viability, T/C","second compound 0.0316 µM, first compound 3.16 µM",33.7%
same,"viability, T/C","second compound 0.0316 µM, first compound 10 µM",31.2%
same,"viability, T/C",[3],29.8%
same,"viability, T/C","second compound 0.1 µM, first compound 0.1 µM",31.9%
same,"viability, T/C",[4],37.1%
same,"viability, T/C","second compound 0.1 µM, first compound 1 µM",41.4%
same,"viability, T/C","second compound 0.1 µM, first compound 3.16 µM",37%
same,"viability, T/C","second compound 0.1 µM, first compound 10 µM",33.8%
same,"viability, T/C",[5],31.5%
same,"viability, T/C","second compound 0.316 µM, first compound 0.1 µM",36.2%
same,"viability, T/C",[6],44%
same,"viability, T/C","second compound 0.316 µM, first compound 1 µM",37.9%
same,"viability, T/C","second compound 0.316 µM, first compound 3.16 µM",39.1%
same,"viability, T/C","second compound 0.316 µM, first compound 10 µM",34.7%
same,"viability, T/C",[7],35%
same,"viability, T/C","second compound 1 µM, first compound 0.1 µM",35.6%
same,"viability, T/C",[8],42.7%
same,"viability, T/C","second compound 1 µM, first compound 1 µM",41.2%
same,"viability, T/C","second compound 1 µM, first compound 3.16 µM",44.2%
same,"viability, T/C","second compound 1 µM, first compound 10 µM",37.3%
same,"viability, T/C",[9],36.2%
same,"viability, T/C","second compound 3.16 µM, first compound 0.1 µM",38.6%
same,"viability, T/C",[10],43.8%
same,"viability, T/C","second compound 3.16 µM, first compound 1 µM",43.3%
same,"viability, T/C","second compound 3.16 µM, first compound 3.16 µM",44.9%
same,"viability, T/C","second compound 3.16 µM, first compound 10 µM",40%
same,"viability, T/C",[11],33.2%
same,"viability, T/C","second compound 10 µM, first compound 0.1 µM",37.3%
same,"viability, T/C",[12],39.1%
same,"viability, T/C","second compound 10 µM, first compound 1 µM",45.6%
same,"viability, T/C","second compound 10 µM, first compound 3.16 µM",46%
same,"viability, T/C","second compound 10 µM, first compound 10 µM",40.8%
